The format of data set [1] is physicochemical. Particulars: 0.04 mg/cm^2. As for the experimental part:
Mesh was cut into three pieces, each approximate 4 cm^2. Each piece was weighed and it was made sure each piece was 50 mg as the actual area was, ca, 50.0 mg/(10.7 mg/cm^2)=4.7 cm^2. Thiolene formula (60 mg) (thiolene formula contains 67.22 wt % Pentaerythritol tetrakis(3-mercaptopropionate), 32.73 wt % […] Isocyanurate, and 0.05 wt % Hydroquinone:tertbutyl cathetol (1:1 mixture by moles), density is, ca, 1.2 g/mL) was dissolved in acetone aiming for the concentration of 100 mg/mL. […] Made three specimens as shown Table 1. The solutions were transferred onto PP mesh using an automatic pipette while the meshes were held by a plastic clamp. […] The thiolene formula loading was set to 2.5 mg/cm^2 in this experiment. […] HPLC runs of each specimen extract from methanol were performed under the conditions below: • Channel A: 35 mM sodium phosphate monobasic, 1 vol % triethylamine, final pH=7.5 with phosphoric acid • Channel B: acetonitrile • Column temperature=30° C. • Column type: 3×150 mm with 3.5 μm phenyl phase packing • Measurement: absorbance at 280 nm • Solvent flow rate: 1 mL/min • Solvent profile: 0-10 minutes 0-50 vol % Channel B; 10-20 minutes 50 vol % Channel B; 20-25 minutes 50-0 vol % Channel B. The concentration of minocycline hydrochloride and rifampin in specimen 2 after curing were determined using direct proportions of peak area integration of specimen 3. • a. […]

A short description of data set [2]: Antibiotics remaining after curing, pentaerythritol tetrakis(3-mercaptopropionate)/PEG DM thiolene coating (EXP12-formula) with PTPO, HPLC peak integration (Example 12). It is filed as physicochemical. Particulars: specimen 11 vs specimen 9, 0.4 mg/cm^2 each drug, curing time 10 mins. As to the method:
All procedures were same as Example 11 except that the thiolene formula was replaced by the following formula (10 g of pentaerythritol tetrakis(3-mercaptopropionate) (from Sigma Aldrich, P #381462, lot #80896TMV) and 21.4 g of polyethylene glycol dimethacrylate (from Sigma Aldrich, P #409510, lot # MKBP0253V) (EXP12-formula). The curing time was set to 10 mins. The two specimens used in curing are shown in the following Table 11. Specimen 9 as discussed in Example 11 was used as a standard.
The top is specimen 9 and the bottom is the cured specimen 11 with drug loading.

The format of data set [3] is physicochemical. The conditions noted are these: 0.4 mg/cm^2. As to the method: Three 35.3 mg, 3.24 cm^2 pieces of polypropylene mesh were cut. About 80 mg thiolene formula (67.22 wt % pentaerythritol tetrakis(3-mercaptopropionate), 32.73 wt % triallyl isocyanurate, and 0.05 wt % hydroquinone:tertbutyl cathetol (1:1 mixture by moles), density is, ca, 1.2 g/mL) was weighed and dissolve the formula in acetone aiming for the concentration of 200 mg/mL. Weighed about 2 mg PTPO and dissolved it in acetone aiming for the concentration of 10 mg/mL. Took 8.1 μL of solution of PTPO (which contained 81 ug PTPO) and 81 μL of the thiolene solution (which contained 16.2 mg of thiolene formula) and mixed them in a 1.5 mL centrifuge tube, so that the PTPO to monomer weight ratio was 0.005. The thiolene formula to PP mesh ratio was 5 mg/cm^2. Drugs were dissolved in methanol and drug/methanol solutions were mixed with monomer/acetone solutions such that solvent ratios were at 2:1 acetone:methanol for drug containing specimens (Table 8). Those specimens not containing drug used pure acetone solvents in the coating formulation. […]
The concentration of minocycline hydrochloride and rifampin in specimen 8 was determined using direct proportions of peak area integrations and taking of […] as 100% drug control. […] The antibiotics remaining after curing was calculated as: {(Peak integration of specimen 8)/(peak integration of specimen 9)}×100%

The nature of data set [4]: Antibiotics remaining after curing, EXP12-formula coating with Irgacure 2959, HPLC peak integration (Example 13). The data set is classed as physicochemical. The conditions noted are these: cured specimen with drug vs specimen 9, Irgacure 2959, UV-C chamber, curing time 10 mins. As for the experimental part: All procedures are same as Example 12 except the PTPO is replaced by Irgacure 2959. The curing time was set to 10 mins. The UV source was Ariste UV-C chamber. […]

Data set [5] is classed as physicochemical. The conditions noted are these: 0.04 mg/cm^2. As for the experimental part:
Three pieces, each approximate 4 cm^2, of polypropylene (PP) mesh (density d=107 g/m^2) were cut and weighed to make sure that each piece has same weight. The weight was 42.7 mg for each piece as the actual area was, ca, 42.7 mg/(10.7 mg/cm^2)=4 cm^2. Polyethylene glycol dimethacrylate (PEG DM) (60 mg) was weighed and dissolve the in acetone making the concentration as 100 mg/mL. PTPO (4.5 mg) was weighed and dissolve in acetone making the concentration as 10 mg/mL. 5 μL of PTPO solution (containing 50 ug PTPO) in step and 100 μL of PEG DM solution (containing 10 mg of PEG DM formula, described above) were mixed in a 1.5 mL centrifuge tube so that the PTPO to PEG DM weight ratio was 0.5%. Took preweighed 157 μg of minocycline and 157 μg of rifampin, so that the drug loading was about 0.04 mg/cm^2 in this experiment for each drug. The solutions were transferred onto PP mesh using an automatic pipette while the meshes were held by a plastic clamp. Specimen 4 and 5 were subjected to curing while specimen 6 was chosen as a reference. The thiolene formula loading was 2.5 mg/cm^2 in this experiment. […]
Using direct proportions of peak integration of specimen 6, the concentration of minocycline hydrochloride and rifampin in specimen 5 after curing was determined. […] The antibiotics remaining after curing were calculated as: {(Peak integration of specimen 5)/(peak integration of specimen 6)}×100%
The source holds these as a separate data set.

Data set [6] in a line: Drug destruction on curing, thiolene coating with PTPO on polypropylene mesh, HPLC of methanol extracts (Example 6). The data set is classed as physicochemical. The conditions noted are these: 0.1 wt % PTPO, halogen dental curing lamp, six coats, theoretical 0.2 mg/cm^2 each drug. As for the experimental part: 1:1:8 weight ratio of monomer (67.22 wt % pentaerythritol tetrakis(3-mercaptopropionate), 32.73 wt % triallyl isocyanurate, and 0.05 wt % hydroquinone:tertbutyl cathetol (1:1 mixture by mole)):methanol:acetone containing minocycline hydrocholoride and rifampin at 50 mg/mL of each drug blend was made. PTPO (BASF P/N 56415733) was added at 0.1 wt %. Polymerization was induced using a halogen dental curing lamp through curing at a distance 2″ from the light guide for 10 seconds on each side of the mesh. Six coats were applied to result in a theoretical loading of 0.2 mg/cm^2 of each drug. HPLC analysis of methanol extracts indicated 72% and 69% destruction of minocycline hydrochloride and rifampin, respectively. High degradation rates may be the result of the phosphine oxide initiator, which could destroy these drugs upon activation.

Data set [7] can be described thus: Drug survival during polymerization and post cure loading, BPDM/NTG-GMA methacrylate coating on DualMesh ePTFE, HPLC of methanol extracts (Example 4). It is filed as physicochemical. Particulars: drugs in casting solution, theoretical 400 μg/cm^2 each drug, methanol extract. From the text:
An acetone:ethanol:BPDM solution:NTG-GMA solution in 1:1:1:1 volume ratio was used to coat DualMesh Biomaterial with drugs both present during the polymerization process and loaded into the polymer network after curing had been performed. Circular 0.785 cm^2 samples of DualMesh were coated. In the version were drugs were included in the casting solution, both minocycline hydrochloride and rifampin were incorporated at levels such if no degradation were to have occurred each drug would have been loaded at a bulk surface area density of 400 μg/cm^2. The post-cure loaded version was created by coating the DualMesh with the same amount of polymer coating, and then submerging the specimen in a 5 mL methanol bath containing each drug at 10 mg/mL overnight (˜18 hours) at 4° C. After soaking in the methanol/drug solution, specimens were retrieved from the loading solution and allowed to air dry. Once dried they were passed through two rinse solutions using the following technique: forceps were used to hold specimens while contacting a minimal amount of the surface, vigorously shake the specimen in a 15 mL methanol rinse for 15 seconds, move specimen to a second 15 mL methanol bath and vigorously shake for an additional 15 seconds, and finally allow to air dry. Shaking was performed by moving the forceps back while holding the specimen submerged in the rinse. […]

Where a name gives a salt, the structure may show the parent alone. Read-outs that look alike come from different tables or passages of the source.

Consider `CN(C)c1ccc(O)c2c1C[C@H]1C[C@H]3[C@H](N(C)C)C(O)=C(C(N)=O)C(=O)[C@@]3(O)C(O)=C1C2=O` [Minocycline, minocycline hydrochloride], for which the Remaining after curing in data set [1] worked out at 88%; in data set [2], 54%; in data set [3], 64%; in data set [4] it was 85%; in data set [5], 76%.

On to `CO[C@H]1/C=C/O[C@@]2(C)Oc3c(C)c(O)c4c(O)c(c(/C=N/N5CCN(C)CC5)c(O)c4c3C2=O)NC(=O)/C(C)=C\C=C\[C@H](C)[C@H](O)[C@@H](C)[C@@H](O)[C@@H](C)[C@H](OC(C)=O)[C@@H]1C` [Rifampin, rifampin], for which the Remaining after curing worked out at 87% in data set [1]; 58% in data set [2]; 61% in data set [3]; 85% in data set [4]; 97% in data set [5]. In addition, the destruction of drug in data set [6] amounted to 69%. The “average drug survival during the polymerization process” value in data set [7] is 79%.
